Literature values as cited in patent US10927398B2, “Compositions for CYP450 phenotyping using saliva samples” (Concordia University, Inc., priority 2015, dated 2021).
Where two headings read alike, the source gives them in different places.

Experiments:
[1] = cited from earlier work
plasma protein = details: cited from earlier work
[2] = Table of Exemplary Drugs, CYP2D6
[3] = Table of Exemplary Drugs, CYP3A4
[4] = Table of Exemplary Drugs, CYP2C19
[5] = Table of Exemplary Drugs, CYP2C9

Structure (SMILES) | HALF-LIFE [1, 3] [h] | PLASMA PROTEIN BINDING (plasma protein; [3]) | also measured
O=C1CCc2ccc(OCCCCN3CCN(c4cccc(Cl)c4Cl)CC3)cc2N1 [Aripiprazole] |  |  | HALF-LIFE [1, 2]: 75 h; PLASMA PROTEIN BINDING (plasma protein; [2]): >99%
C=C(c1ccc(C(=O)O)cc1)c1cc2c(cc1C)C(C)(C)CCC2(C)C [Bexarotene (Targretin), Bexarotene] | 7 | 99% | 
CC(NC(C)(C)C)C(=O)c1cccc(Cl)c1 (stereo not shown) [Bupropion] | 19 to 21.3 | 84% | HALF-LIFE [1, 4]: 19 to 21.3 h; PLASMA PROTEIN BINDING (plasma protein; [4]): 84%
NC(=O)N1c2ccccc2C=Cc2ccccc21 [Carbamazepine (eg. Tegretol), Carbamazepine] | 12 to 17 | 76% | 
CCCC(C)(COC(N)=O)COC(=O)NC(C)C (stereo not shown) [Carisoprodol] |  |  | PLASMA PROTEIN BINDING (plasma protein; plasma): 60%
Cc1ccc(-c2cc(C(F)(F)F)nn2-c2ccc(S(N)(=O)=O)cc2)cc1 [Celecoxib] |  |  | HALF-LIFE [1, 5]: 11 h; PLASMA PROTEIN BINDING (plasma protein; [5]): 97%
CC1OC2(CS1)CN1CCC2CC1 (stereo not shown) [Cevimeline (Evoxac), Cevimeline] | 4 to 6 | <20% | 
CN(C)CCC(c1ccc(Cl)cc1)c1ccccn1 (stereo not shown) [Chlorphenamine] |  |  | PLASMA PROTEIN BINDING (plasma protein; [2]): 72%
O=C1CN=C(c2ccccc2Cl)c2cc([N+](=O)[O-])ccc2N1 [Clonazepam (Klonopin), Clonazepam] |  | 85% | HALF-LIFE ([1]; in vivo): 30 to 40 h
O=P1(N(CCCl)CCCl)NCCCO1 (stereo not shown) [Cyclophosphamide] |  |  | HALF-LIFE ([1]; in vivo): 3 to 12 h; PLASMA PROTEIN BINDING (plasma protein; plasma): >60%
Cc1nc(Nc2ncc(C(=O)Nc3c(C)cccc3Cl)s2)cc(N2CCN(CCO)CC2)n1 [Dasatinib (Sprycel), Dasatinib] | 3 to 5 | 96% | 
C[C@@H]1C[C@H]2[C@@H]3CCC4=CC(=O)C=C[C@]4(C)[C@@]3(F)[C@@H](O)C[C@]2(C)[C@@]1(O)C(=O)CO [Dexmethasone (Decadron), Dexmethasone] |  |  | PLASMA PROTEIN BINDING (plasma protein; plasma): 77%
CN[C@@H](C)Cc1ccccc1 [Dextromethamphetamine] |  |  | HALF-LIFE [1, 2]: 12 h
CC(=O)O[C@@]12CO[C@@H]1C[C@H](O)[C@@]1(C)C(=O)[C@H](O)C3=C(C)[C@@H](OC(=O)[C@H](O)[C@@H](NC(=O)OC(C)(C)C)c4ccccc4)C[C@@](O)([C@@H](OC(=O)c4ccccc4)[C@H]21)C3(C)C [Docetaxel (Taxotere), Docetaxel] | 11.1 | 94-97% ^ | 
O=C(CCCN1CC=C(n2c(=O)[nH]c3ccccc32)CC1)c1ccc(F)cc1 [Droperidol] | 2 |  | 
CN1CCN(C(=O)O[C@H]2c3nccnc3C(=O)N2c2ccc(Cl)cn2)CC1 [Eszopiclone (Lunesta), Eszopiclone] |  | 52-59% ^ | 
COCCCC/C(=N\OCCN)c1ccc(C(F)(F)F)cc1 [Fluvoxamine] |  |  | HALF-LIFE ([1]; Table of Exemplary Drugs, CYP1A2): ~14 to 16 h; HALF-LIFE [1, 2]: 15.6 h
CC(C)CN(C[C@@H](OP(=O)(O)O)[C@H](Cc1ccccc1)NC(=O)O[C@H]1CCOC1)S(=O)(=O)c1ccc(N)cc1 [Fosamprenavir (Lexiva), Fosamprenavir] | 7.7 | 90% | 
COc1ccc(Cl)cc1C(=O)NCCc1ccc(S(=O)(=O)NC(=O)NC2CCCCC2)cc1 [Glibenclamide] |  |  | PLASMA PROTEIN BINDING (plasma protein; [5]): 99%
CN1C2CCCC1CC(NC(=O)c1nn(C)c3ccccc13)C2 (stereo not shown) [Granisetron (Kytril), Granisetron] | 3 to 24 | 65% | 

Structure (SMILES) | HALF-LIFE [1, 3] [h] | PLASMA PROTEIN BINDING (plasma protein; [3]) | also measured
CCCCN(CCCC)CCC(O)c1cc2c(Cl)cc(Cl)cc2c2cc(C(F)(F)F)ccc12 (stereo not shown) [Halofantrine (Halfan), Halofantrine] | 140 to 240 | 60-70% ^ | 
CN1C(=O)NC(=O)C(C)(C2=CCCCC2)C1=O (stereo not shown) [Hexobarbital] |  |  | PLASMA PROTEIN BINDING (plasma protein; [4]): 25%
CCC(C)n1ncn(-c2ccc(N3CCN(c4ccc(OCC5COC(Cn6cncn6)(c6ccc(Cl)cc6Cl)O5)cc4)CC3)cc2)c1=O (stereo not shown) [Itraconazole (Sporanox), Itraconazole] | 35 to 64 |  | 
C/C(=C\c1csc(C)n1)[C@@H]1C[C@@H]2O[C@]2(C)CCC[C@H](C)[C@H](O)[C@@H](C)C(=O)C(C)(C)[C@@H](O)CC(=O)N1 [Ixabepilone (Ixempra), Ixabepilone] | 52 | 67-77% ^ | 
CS(=O)(=O)CCNCc1ccc(-c2ccc3ncnc(Nc4ccc(OCc5cccc(F)c5)c(Cl)c4)c3c2)o1 [Lapatinib (Tykerb), Lapatinib] | 24 | >99% | 
CC[C@H](O)C(C[C@H](C)N(C)C)(c1ccccc1)c1ccccc1 [Levomethadyl (Orlaam), Levomethadyl] |  | 80% | HALF-LIFE ([1]; in vivo): 35 to 60 h
C=C(C)[C@H]1CC=C(C)CC1 [Limonene] |  |  | HALF-LIFE [1, 4]: 12 to 24 h
Cc1cc(-c2ccccc2)nnc1NCCN1CCOCC1 [Minaprine] |  |  | HALF-LIFE [1, 2]: 2 to 2.5 h
CN(C)C[C@H]1CCCC[C@]1(O)c1cccc(O)c1 [O-desmethyltramadol] |  |  | HALF-LIFE [1, 2]: 9 h
C1CCC(C(CC2CCCCN2)C2CCCCC2)CC1 (stereo not shown) [Perhexiline] |  |  | HALF-LIFE [1, 2]: 12 to 18 h
O=c1[nH]c2ccccc2n1C1CCN(CCCC(c2ccc(F)cc2)c2ccc(F)cc2)CC1 [Pimozide (Orap), Pimozide] | 55 |  | 
Cc1nc2n(c(=O)c1CCN1CCC(c3noc4cc(F)ccc34)CC1)CCCC2 [Risperidone] |  |  | HALF-LIFE [1, 2]: 3 to 20 h
CC(C)c1nc(CN(C)C(=O)N[C@H](C(=O)N[C@@H](Cc2ccccc2)C[C@H](O)[C@H](Cc2ccccc2)NC(=O)OCc2cncs2)C(C)C)cs1 [Ritonavir (Norvir), Ritonavir] | 3 to 5 |  | 
CN(CCOc1ccc(CC2SC(=O)NC2=O)cc1)c1ccccn1 (stereo not shown) [Rosiglitazone] |  |  | HALF-LIFE [1, 5]: 3 to 4 h
CSc1ccc2c(c1)N(CCC1CCCCN1C)c1ccccc1S2 (stereo not shown) [Thioridazine] |  |  | HALF-LIFE [1, 2]: 21 to 24 h
CCCCNC(=O)NS(=O)(=O)c1ccc(C)cc1 [Tolbutamide] |  |  | HALF-LIFE [1, 5]: 4.5 to 6.5 h
CC[C@]1(O)C[C@H]2CN(CCc3c([nH]c4ccccc34)[C@@](C(=O)OC)(c3cc4c(cc3OC)N(C=O)[C@H]3[C@@](O)(C(=O)OC)[C@H](OC(C)=O)[C@]5(CC)C=CCN6CC[C@]43[C@@H]65)C2)C1 [Vincristine (Oncovin), Vincristine] | 85 |  | 
Cc1ccc(-c2nc3ccc(C)cn3c2CC(=O)N(C)C)cc1 [Zolpidem (Ambien), Zolpidem] |  |  | HALF-LIFE ([1]; in vivo): 2.5 to 2.8 h
NS(=O)(=O)Cc1noc2ccccc12 [Zonisamide (Zonegran), Zonisamide] |  | 40-60% ^ | 
